Assay results published in US11613780B2, “Materials and methods for identifying gyrase inhibitors” (THE FLORIDA INTERNATIONAL UNIVERSITY BOARD OF TRUSTEES, priority 2016, dated 2023).
Entries after “also recorded” stand apart in the source; their conditions may differ.

Assays:
[1] = test system: expression of firefly luciferase under the control of the PgyrA (screen for DNA gyrase inhibitors); assay: Firefly luciferase expression from PgyrA divergently coupled to IPTG-induced PT7Al/O4 (luciferase assay); type: cell-based, E. coli; details: for expression of firefly luciferase (other antibiotics): FIG. 12F, antibiotics that are not gyrase inhibitors; for expression of firefly luciferase of FL #1181: FL #1181, in the presence of IPTG, FIG. 12E
Protocol: (§1) FIGS. 5A-5D. (FIG. 5A) and (FIG. 5B) Inhibition of the supercoiling-sensitive PgyrA by E. coli […] on the chromosome. E. coli strains FL1181 (MG1655(DE3)ΔlacZ attTn7::PT7Al/O4lacZ-PgyrAluc; squares) and FL1182 (VS111(DE3)ΔlacZ attTn7::PT7Al/O4lacZ-PgyrAluc; circles) were used. The activities of β-galactosidase (Miller's units) and firefly luciferase (RLU) were plotted against the IPTG concentration added to the cell cultures. […] Overnight cell cultures were diluted 100-fold and grown until OD600 reached 0.2. Then 0.5 mM of IPTG and various concentrations of ciprofloxacin or other antibiotics were added to the cell cultures. After additional 30 min incubation, the activities of β-galactosidase and firefly luciferase were measured as described under Materials and Methods. (FIG. 5C) Ciprofloxacin inhibited the expression of β-galactosidase.
Briefly, a 5.1 kb DNA fragment carrying the divergently coupled PgyrA and PT7Al/O4 promoters with the luc and lacZ genes was inserted to the attTn7 site of the E. coli chromosome (84 min of the chromosome) to generate FL1181 and FL1182. In both strains, the IPTG-inducible PT7Al/O4 controls the expression of β-galactosidase. Using similar approach, the following E. coli strains were generated: FL1181, FL1182, FL1198, FL1199, FL1200, FL1202, FL1203, and FL1204.
Luciferase Assay was used to verify the expression of luciferase in various E. coli strains carrying different plasmid DNA templates. Briefly, E. coli cells carrying different plasmids were grown overnight in LB. Antibiotics were added to LB as needed. The overnight culture was then diluted (1:100) in fresh LB in the presence of different concentrations of IPTG, and grown until the OD600 nm reached approximately 0.5. Next, 50 μl of cells were mixed with 10 μl of 1 M K2HPO4 (pH 7.8) and 20 mM EDTA, quickly frozen in liquid nitrogen for 3 min, and equilibrated to room temperature for 30 min to yield about 60 μl of cell lysate. Then, the cell lysate was added with 300 μl freshly prepared lysis mix containing 1×cell culture lysis reagent (CCLR), 1.25 mg/ml lysozyme, and 2.5 mg/ml BSA, and incubated for 10 min at room temperature. Finally, 100 μl of Luciferase Assay Reagent (Promega Corporation, Madison, Wis.) was added to 20 μl of the cell lysate and used for light measurement by using a Promega GloMax 20/20 Single-Tube Luminometer.

[2] = test system: expression of β-galactosidase (lacZ) under the control of PT7Al/O4; assay: β-galactosidase expression from PT7Al/O4 (Miller's assay); type: cell-based, E. coli; details: FL1181 and FL1182, 0.5 mM IPTG, 30 min incubation; FIG. 5C
Protocol: as §1, with “β-galactosidase. […]” for “β-galactosidase.”
The expression level of β-galactosidase was measured by Miller's assay as described by Miller et al. Briefly, 100 mL of LB was inoculated with 1 mL of overnight bacterial cell culture until OD600 reaches about 0.2. […] After cell debris was removed by centrifugation at 13,000 rpm for 1 min, OD420 and OD550 were measured in a Cary 50 spectrophotometer. β-Galactosidase activities (E) were calculated using the following equation: […]

| SMILES | expression of firefly luciferase (other antibiotics) [1] | expression of firefly luciferase of FL #1181 [1] | expression of β-galactosidase [2] | expression of firefly luciferase ([1]; E. coli strains FL1181 and FL1182 (divergently coupled PgyrA and PT7Al/O4), in the presence of IPTG (0.5 mM), 30 min incubation, FIG. 5D) |
| --- | --- | --- | --- | --- |
| CC1(C)S[C@@H]2[C@H](NC(=O)[C@H](N)c3ccccc3)C(=O)N2[C@H]1C(=O)O [ampicillin] | inhibited; also recorded: inhibition |  |  |  |
| CCn1cc(C(=O)O)c(=O)c2cc(F)c(N3CCNCC3)cc21 [norfloxacin] |  | stimulation |  |  |
| CCN1CCN(c2cc3c(cc2F)c(=O)c(C(=O)O)cn3C2CC2)CC1 [enrofloxacin] |  | stimulation |  |  |
| O=C(O)c1cn(C2CC2)c2cc(N3CCNCC3)c(F)cc2c1=O [ciprofloxacin] |  | stimulation | inhibited | substantially increased; also recorded: greatly enhanced; also recorded: specifically enhanced |
| CN[C@@H]1[C@H](O)[C@H](NC)[C@H]2O[C@@]3(O)C(=O)C[C@@H](C)O[C@H]3O[C@@H]2[C@H]1O [spectinomycin] | inhibition |  |  |  |
